Like-named read-outs stand apart in the source and are kept apart here.
What was measured:
[1] = system: mechanical allodynia after chronic constriction injury (CCI) to the sciatic nerve; assay: Mechanical allodynia by response to von Frey fibers, rat chronic constriction injury (CCI) model; type: in vivo, male Sprague-Dawley rats; conditions: 2 hr post dosing
Excerpt: Chronic Constriction Injury: Heat and cold allodynia responses as well as mechanical allodynia sensations can be evaluated as described below in rats having a chronic constriction injury (CCI). A unilateral mononeuropathy is produced in rats using the chronic constriction injury model described in Bennett et al., Pain (1988) 33:87-107. CCI is produced in anesthetized rats as follows. The lateral aspect of each rat's hind limb is shaved and scrubbed with Nolvasan. Using aseptic techniques, an incision is made on the lateral aspect of the hind limb at the mid-thigh level. The biceps femoris is bluntly dissected to expose the sciatic nerve. On the right hind limb of each rat, four loosely tied ligatures (for example, Chromic gut 4.0; Ethicon, Johnson and Johnson, Somerville, N.J.) are made around the sciatic nerve approximately 1-2 mm apart. On the left side of each rat, an identical dissection is performed except that the sciatic nerve is not ligated (sham). The muscle is closed with a continuous suture pattern with, e.g., 4-0 Vicryl (Johnson and Johnson, Somerville, N.J.) and the overlying skin is closed with wound clips. The rats are ear-tagged for identification purposes and returned to animal housing.
To induce allodynia, male Sprague-Dawley rats underwent chronic constriction injury (CCI) to the sciatic nerve as described by Bennett and Xie, Pain 1988; 33(1):87-107. The plantar surface of the hind paws was stimulated with von Frey filaments (Stoelting) to induce a withdrawal response by blinded personnel. The bending force of fiber required to induce a 50% withdrawal response was calculated following CCI surgery (pre-dosing baseline). N=5-6 allodynic rats received a single intraperitoneal administration of test compound or vehicle. Two hours post-dosing, 50% paw withdrawal threshold was determined again by blinded testers using von Frey filaments. The change in 50% withdrawal threshold relative to pre-dosing baseline is reported in Table 2 for various substituted pyrazolo[1,5-a]pyridine compounds of the invention.

[2] = biological target: phosphodiesterase (PDE) enzyme derived from bovine brain; assay: Inhibition of PDE (PDELight kit, cAMP substrate); type: biochemical; conditions: PDE from brain extract, cAMP as substrate
Experimental: In a 96-well plate, phosphodiesterase (PDE) enzyme (0.5-1 mU/well) derived from bovine brain (Sigma) was combined with 5 uM cAMP substrate (Sigma). Test compounds (0-200 uM) or vehicle (0.5% DMSO) were added to the enzyme/substrate and incubated for 1 hour. Using a PDELight® kit (Cambrex), the amount of AMP produced in the reaction from the hydrolysis of cAMP was quantified using PDELight AMP Detection Reagent which converts the AMP directly to ATP. The assay uses luciferase, which catalyses the formation of light from the newly formed ATP and luciferin. The luminescence was read on a Victor Light 1420 luminometer. IC50 calculations were plotted using a nonlinear regression curve fit.

[3] = system: IL-1β production in LPS-stimulated human peripheral blood mononuclear cells; assay: Inhibition of LPS-stimulated IL-1β release from PBMCs; type: cell-based; conditions: PBMC, LPS-stimulated cytokine release from PBMCs
Experimental: (§1) IC50 values were determined for representative compounds of the invention based upon their ability to inhibit LPS-induced cytokine production in human peripheral blood mononuclear cells. Human PBMCs (peripheral blood mononuclear cells) were isolated over a Ficoll gradient from buffy coats obtained from the local Red Cross. 10^6 PBMC cells/well were seeded in 24-well tissue culture plates in RPMI 1640 medium supplemented with 10% human serum, hepes buffer and sodium pyruvate. The cells were treated with 0.1% DMSO (vehicle) or test compounds (1, 10, and 100 uM) 30 minutes prior to activation with LPS (lipopolysaccharide) (E. Coli) at 10 ng/mL. 6-10 hours post LPS stimulation the culture supernatants were collected and levels of cytokines TNF-α and IL-1β were quantified by ELISA (R&D Systems) and/or Luminex (Linco Diagnostics). IC50 calculations were plotted using a nonlinear regression curve fit for exemplary substituted pyrazolo[1,5-a]pyridine compounds of the invention; results are provided in Table 2.

[4] = system: TNF-α production in LPS-stimulated human peripheral blood mononuclear cells; assay: Inhibition of LPS-stimulated TNF-α release from PBMCs; type: cell-based; conditions: PBMC
Experimental: as §1

[5] = LPS-stimulated cytokine release from PBMCs, read-out: TNF-α (IC50)
[6] = less than or equal to about 50 μM, PBMCs, read-out: IC50, LPS-induced cytokine production (cytokine not specified)

Row | SMILES | melting point | Mechanical Allodynia ΔWT (change from pre-dosing 50% withdrawal threshold) ([1]; 10 mg/kg IP) | IC50 [2] | IC50 [3] | IC50 [4, 5] | IC50 [4, 6] | Mechanical Allodynia ΔWT (change from pre-dosing 50% withdrawal threshold) ([1]; 20 mg/kg IP) | Mechanical Allodynia ΔWT (change from pre-dosing 50% withdrawal threshold) ([1]; 25 mg/kg PO) | Mechanical Allodynia ΔWT (change from pre-dosing 50% withdrawal threshold) ([1]; 40 mg/kg IP)
1 | CC(CN1CCCCC1)C(=O)c1c(C(C)C)nn2ccccc12.Cl (stereo not shown) [compound 1063, 1-(2-isopropylpyrazolo[1,5-a]pyridin-3-yl)-2-methyl-3-(piperidin-1-yl)propan-1-one hydrochloride] | 166 to 167 °C | 0 grams | – | – | – | – | – | – | –
2 | CC(C)C(=NO)c1c(-c2ccccc2)nn2ccccc12 [Compound 1016, 2-methyl-1-(2-phenylpyrazolo[1,5-a]pyridin-3-yl)propan-1-one oxime] | – | 0 grams | 75 µM | > 100 µM | > 100 µM | – | – | – | –
3 | CC(C)c1nn2ccccc2c1C(O)C(C)C (stereo not shown) [Compound 1002, 1-(2-isopropylpyrazolo[1,5-a]pyridin-3-yl)-2-methylpropan-1-ol] | 69 °C | 0.79 grams | > 200 µM | > 100 µM | > 100 µM | – | – | – | –
4 | COc1ccc(C(=O)c2c(C(C)C)nn3ccccc23)cc1 [Compound 1008, (2-isopropylpyrazolo[1,5-a]pyridin-3-yl)(4-methoxyphenyl)methanone] | – | 0.84 grams | 5.8 µM | > 100 µM | 50 µM | ≤ 50 µM | – | – | –
5 | CC(CNCc1ccccc1)C(=O)c1c(C(C)C)nn2ccccc12.Cl (stereo not shown) [compound 1066, 3-(benzylamino)-1-(2-isopropylpyrazolo[1,5-a]pyridin-3-yl)-2-methylpropan-1-one hydrochloride] | 171 to 175 °C | 0.1 grams | – | – | – | – | – | – | –
6 | CC(N)C(=O)c1c(C(C)C)nn2ccccc12 (stereo not shown) [compound 1013, 2-amino-1-(2-isopropylpyrazolo[1,5-a]pyridin-3-yl)propan-1-one] | – | 10 mg/kg: 1.04 grams | > 200 µM | > 100 µM | 13.6 µM | ≤ 50 µM | 20 mg/kg: 1.33 grams | 25 mg/kg PO: 1.39 grams | 40 mg/kg: 3.16 grams
7 | CC(C)C(=O)c1c(-c2ccc(F)cc2)nn2cc(C(F)(F)F)ccc12 [Compound 1027, 1-(2-(4-fluorophenyl)-6-(trifluoromethyl)pyrazolo[1,5-a]pyridin-3-yl)-2-methylpropan-1-one] | 129 to 130 °C | 0 grams | > 200 µM | – | – | – | – | – | –
8 | O=C(c1c(C2CC2)nn2ccccc12)C1CC1 [Compound 1047, cyclopropyl(2-cyclopropylpyrazolo[1,5-a]pyridin-3-yl)methanone] | 102 to 104 °C | 0.68 grams | 15.4 µM | – | – | – | – | – | –
9 | CC(C)C(=O)c1c(-c2ccc(F)cc2)nn2ccccc12 [Compound 1018, 1-(2-(4-fluorophenyl)pyrazolo[1,5-a]pyridin-3-yl)-2-methylpropan-1-one] | – | 0 grams | > 200 µM | > 100 µM | 32.7 µM | ≤ 50 µM | – | – | –
10 | CC(CN)C(=O)c1c(C(C)C)nn2ccccc12.Cl (stereo not shown) [compound 1065, 3-amino-1-(2-isopropylpyrazolo[1,5-a]pyridin-3-yl)-2-methylpropan-1-one hydrochloride] | 110 to 115 °C | 0.91 grams | – | – | – | – | – | – | –
11 | CCC(=O)c1c(C(C)C)nn2ccccc12 [Compound 1001, 1-(2-isopropylpyrazolo[1,5-a]pyridin-3-yl)propan-1-one] | 41 to 43 °C | 0 grams | 58 µM | > 100 µM | 13 µM | ≤ 50 µM | – | – | –
12 | CC(C)C(=NO)c1c(C(C)C)nn2ccccc12 [Compound 1012, 1-(2-isopropylpyrazolo[1,5-a]pyridin-3-yl)-2-methylpropan-1-one oxime] | – | 1.56 grams | 40 µM | 99 µM | > 100 µM | – | – | – | –
13 | CC(C)C(=O)c1c(C(C)C)nn2cc(O)ccc12 [compound 1006, 1-(6-hydroxy-2-isopropylpyrazolo[1,5-a]pyridin-3-yl)-2-methylpropan-1-one] | – | 0 grams | 29.6 µM | 14.7 µM | 1.3 µM | ≤ 50 µM | – | – | –
14 | CC(C)C(=O)c1c(C2CC2)nn2ccccc12 [compound 1050, 1-(2-cyclopropylpyrazolo[1,5-a]pyridin-3-yl)-2-methylpropan-1-one] | 108 to 109 °C | 0 grams | – | – | – | – | – | – | –
15 | CC(C)C(=NOC(N)=O)c1c(C(C)C)nn2ccccc12 [compound 1014, 1-(2-isopropylpyrazolo[1,5-a]pyridin-3-yl)-2-methylpropan-1-one O-carbamoyl oxime] | – | 10 mg/kg: 2.18 grams | 100 µM | 1 µM | 1.3 µM | ≤ 50 µM | 20 mg/kg: 3.73 grams | – | –
16 | CC(C)c1nn2ccccc2c1C(=O)C1CC1 [Compound 1046, cyclopropyl(2-isopropylpyrazolo[1,5-a]pyridin-3-yl)methanone] | 72 °C | 0 grams | 33.3 µM | – | – | – | – | – | –
17 | CC(C)c1nn2ccccc2c1C(=O)C(C)(C)O [compound 1004, 2-hydroxy-1-(2-isopropylpyrazolo[1,5-a]pyridin-3-yl)-2-methylpropan-1-one] | – | 0.48 grams | 12.6 µM | > 100 µM | 28.8 µM | ≤ 50 µM | – | – | –
18 | CC(C)C(=NO)c1c(-c2ccc(F)cc2)nn2ccccc12 [compound 1019, 1-(2-(4-fluorophenyl)pyrazolo[1,5-a]pyridin-3-yl)-2-methylpropan-1-one oxime] | – | 1.4 grams | 40 µM | > 100 µM | > 100 µM | – | – | – | –
19 | CC(C)c1nn2ccccc2c1C(=O)c1ccc(Cl)cc1 [Compound 1007, (4-chlorophenyl)(2-isopropylpyrazolo[1,5-a]pyridin-3-yl)methanone] | – | 0.92 grams | > 200 µM | 29.7 µM | 13 µM | ≤ 50 µM | – | – | –

From patent US7585875B2, “Substituted pyrazolo[1,5-a]pyridine compounds and their methods of use” (Avigen, Inc., priority 2006, dated 2009)
